Data published in patent publication US12495798B2, “Nicotinamide compound and herbicidal composition comprising compound” (KOREA RESEARCH INSTITUTE OF CHEMICAL TECHNOLOGY, priority 2019, dated 2025).

Tests used:
Type in all cases: in vivo
bindweed [1] = test: Herbicidal activity test against upland field weeds (soil treatment test); parameters: key to Soil treatment herbicidal activity, Bindweed: 0 (no control); 100 (complete control); conditions: 50 g ai/ha, scale 0 (no control) to 100 (complete control)
Procedure, shortened: (§1)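 Pre-emergence test: seeds or rootstocks were sown in fertilized sandy loam, and the next day the soil surface was sprayed with compound at 50 or 75 g a.i./ha in 50% acetone/0.1% Tween-20. Plants were grown in a greenhouse (30±5 °C, 14/10 h light/dark), then visually scored 0–100 against untreated at 14 d (21 d if needed).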

velvetleaf [2] = test: as above; parameters: key to Soil treatment herbicidal activity, velvet leaf: 0 (no control); 100 (complete control); conditions: 50 g ai/ha, scale 0 (no control) to 100 (complete control)
Procedure, shortened: as §1

crabgrass [3] = test: Herbicidal activity test against upland field weeds (foliar treatment test); parameters: key to Foliar treatment herbicidal activity, Crabgrass: 0 (no control); 100 (complete control); conditions: 50 g ai/ha, scale 0-100
Procedure, shortened: (§2)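 Weeds were raised from seed or rootstocks in horticultural soil in a greenhouse (30±5° C., 14/10 h light/dark), then foliage was hand-sprayed with compound at 50 or 75 g a.i./ha in 50% acetone with 0.1% Tween-20. Control was scored visually 0–100 against untreated plants after 14 days, or 21 if needed.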

cocklebur [4] = test: Herbicidal activity test against upland field weeds (soil treatment test); parameters: key to Soil treatment herbicidal activity, Cocklebur: 0 (no control); 100 (complete control); conditions: 50 g ai/ha, scale 0 (no control) to 100 (complete control)
Experimental: Experimental Example 2: Herbicidal Activity Test Against Upland Field Weeds (Soil Treatment Test) Soil treatment was performed as follows: After filling a square plastic pot having a surface area of 350 cm^2 with sandy loam mixed with 1 g per pot (350 cm^2) of horticultural mixed fertilizer (N:P:K=11:10:11), seeds (10˜15 grains) or rootstocks (2 pieces) of 5 kinds of grassy weeds of sorghum, barnyard grass, quack grass, crabgrass, fall panicum, and 5 kinds of broadleaf weeds of black nightshade, indian jointvetch, velvetleaf, cocklebur, bindweed, which had been stored in a low temperature (6° C.), were sown. The day after sowing, test compound solutions were made by diluting with a preparation solution (including 50% acetone, 0.1% Tween-20) so that the final treatment amount of the test compounds was 50 or 75 g a.i./ha. The prepared test compound solution was used for treating soil surface by hand-spraying 14 mL per pot in a fume hood. After the treatment, it was managed under the same greenhouse conditions (average temperature 30±5° C., light/dark=14/10 hours), and after 14 days (after 21 days if necessary), the external symptoms and efficacy were investigated according to the scale of 0 (no control) to 100 (complete control). The results of Table 8 were obtained by evaluating weed control value to the untreated control by conducting visual assessment.

barnyard grass [5] = test: as above; parameters: key to Soil treatment herbicidal activity, barnyard grass: 0 (no control); 100 (complete control); conditions: 50 g ai/ha, scale 0 (no control) to 100 (complete control)
Procedure, shortened: as §1

quack grass [6] = test: as above; parameters: key to Soil treatment herbicidal activity, quack grass: 0 (no control); 100 (complete control); conditions: 50 g ai/ha, scale 0 (no control) to 100 (complete control)
Procedure, shortened: as §1

crabgrass [7] = test: as above; parameters: key to Soil treatment herbicidal activity, Crabgrass: 0 (no control); 100 (complete control); conditions: 50 g ai/ha, scale 0 (no control) to 100 (complete control)
Procedure, shortened: as §1

black nightshade [8] = test: Herbicidal activity test against upland field weeds (foliar treatment test); conditions: Solanum nigrum, 50 g ai/ha, scale 0-100
Procedure, shortened: as §2

black nightshade [9] = test: Herbicidal activity test against upland field weeds (soil treatment test); conditions: Solanum nigrum, 50 g ai/ha, scale 0 (no control) to 100 (complete control)
Procedure, shortened: as §1

cocklebur [10] = test: Herbicidal activity test against upland field weeds (foliar treatment test); parameters: key to Foliar treatment herbicidal activity, Cocklebur: 0 (no control); 100 (complete control); conditions: 50 g ai/ha, scale 0-100
Procedure, shortened: as §2

fall panicum [11] = test: as above; parameters: key to Foliar treatment herbicidal activity, Fall panicum: 0 (no control); 100 (complete control); conditions: 50 g ai/ha, scale 0-100
Procedure, shortened: as §2

barnyard grass [12] = test: as above; parameters: key to Foliar treatment herbicidal activity, barnyard grass: 0 (no control); 100 (complete control); conditions: 50 g ai/ha, scale 0-100
Procedure, shortened: as §2

sorghum [13] = test: Herbicidal activity test against upland field weeds (soil treatment test); parameters: key to Soil treatment herbicidal activity, Sorghum: 0 (no control); 100 (complete control); conditions: 50 g ai/ha, scale 0 (no control) to 100 (complete control)
Procedure, shortened: as §1

velvetleaf [14] = test: Herbicidal activity test against upland field weeds (foliar treatment test); parameters: key to Foliar treatment herbicidal activity, velvet leaf: 0 (no control); 100 (complete control); conditions: 50 g ai/ha
Procedure, shortened: as §2

fall panicum [15] = test: Herbicidal activity test against upland field weeds (soil treatment test); parameters: key to Soil treatment herbicidal activity, Fall panicum: 0 (no control); 100 (complete control); conditions: 50 g ai/ha, scale 0 (no control) to 100 (complete control)
Procedure, shortened: as §1

quack grass [16] = test: Herbicidal activity test against upland field weeds (foliar treatment test); parameters: key to Foliar treatment herbicidal activity, quack grass: 0 (no control); 100 (complete control); conditions: 50 g ai/ha, scale 0-100
Procedure, shortened: as §2

sorghum [17] = test: as above; parameters: key to Foliar treatment herbicidal activity, Sorghum: 0 (no control); 100 (complete control); conditions: 50 g ai/ha, scale 0-100
Procedure, shortened: as §2

indian jointvetch [18] = test: as above; parameters: key to Foliar treatment herbicidal activity, Indian jointvetch: 0 (no control); 100 (complete control); conditions: 50 g ai/ha, scale 0-100
Procedure, shortened: as §2

bindweed [19] = test: as above; parameters: key to Foliar treatment herbicidal activity, Bindweed: 0 (no control); 100 (complete control); conditions: 50 g ai/ha, scale 0-100
Procedure, shortened: as §2

indian jointvetch [20] = test: Herbicidal activity test against upland field weeds (soil treatment test); parameters: key to Soil treatment herbicidal activity, Indian jointvetch: 0 (no control); 100 (complete control); conditions: 50 g ai/ha, scale 0 (no control) to 100 (complete control)
Procedure, shortened: as §1

C=Cc1cc(C(=O)Nc2nnnn2C)c(OCc2nnnn2C)nc1C(F)(F)F [Compound No. 1-18, N-(1-methyl-1H-tetrazol-5-yl)-2-((1-methyl-1H-tetrazol-5-yl)methoxy)-6-(trifluoromethyl)-5-vinylnicotinamide]
pest or weed control at 50 g/ha (bindweed [1]): 20%
pest or weed control at 50 g/ha (velvetleaf [2]; Abutilon theophrasti, read-out: Soil treatment herbicidal activity, velvet leaf): 20%
Foliar treatment herbicidal activity, Crabgrass (crabgrass [3]): 0
Soil treatment herbicidal activity, Cocklebur (cocklebur [4]): 0
Soil treatment herbicidal activity, barnyard grass (barnyard grass [5]): 0
Soil treatment herbicidal activity, quack grass (quack grass [6]): 0
Soil treatment herbicidal activity, Crabgrass (crabgrass [7]): 0
pest or weed control at 50 g/ha (black nightshade [8]): 80%
pest or weed control at 50 g/ha (black nightshade [9]): 80%
Foliar treatment herbicidal activity, Cocklebur (cocklebur [10]): 0
Foliar treatment herbicidal activity, Fall panicum (fall panicum [11]): 0
Foliar treatment herbicidal activity, barnyard grass (barnyard grass [12]): 0
Soil treatment herbicidal activity, Sorghum (sorghum [13]): 0
pest or weed control at 50 g/ha (velvetleaf [14]; Abutilon theophrasti, scale 0-100, read-out: Foliar treatment herbicidal activity, velvet leaf): 20%
Soil treatment herbicidal activity, Fall panicum (fall panicum [15]): 0
Foliar treatment herbicidal activity, quack grass (quack grass [16]): 0
Foliar treatment herbicidal activity, Sorghum (sorghum [17]): 0
Foliar treatment herbicidal activity, Indian jointvetch (indian jointvetch [18]): 0
pest or weed control at 50 g/ha (bindweed [19]): 20%
Soil treatment herbicidal activity, Indian jointvetch (indian jointvetch [20]): 0

Cn1nnc(CN(OCc2ccccc2)c2nc(C(F)(F)F)ccc2C(=O)Nc2nnnn2C)n1 [Compound No. 2-29, 2-((benzyloxy)((2-methyl-2H-tetrazol-5-yl)methyl)amino)-N-(1-methyl-1H-tetrazol-5-yl)-6-(trifluoromethyl)nicotinamide]
Soil treatment herbicidal activity, Bindweed (bindweed [1]): 0
Soil treatment herbicidal activity, velvet leaf (velvetleaf [2]): 0
Foliar treatment herbicidal activity, Crabgrass (crabgrass [3]): 0
Soil treatment herbicidal activity, Cocklebur (cocklebur [4]): 0
Soil treatment herbicidal activity, barnyard grass (barnyard grass [5]): 0
Soil treatment herbicidal activity, quack grass (quack grass [6]): 0
Soil treatment herbicidal activity, Crabgrass (crabgrass [7]): 0
pest or weed control at 50 g/ha (black nightshade [8]): 20%
pest or weed control at 50 g/ha (black nightshade [9]): 20%
Foliar treatment herbicidal activity, Cocklebur (cocklebur [10]): 0
Foliar treatment herbicidal activity, Fall panicum (fall panicum [11]): 0
Foliar treatment herbicidal activity, barnyard grass (barnyard grass [12]): 0
Soil treatment herbicidal activity, Sorghum (sorghum [13]): 0
Foliar treatment herbicidal activity, velvet leaf (velvetleaf [14]; scale 0-100): 0
Soil treatment herbicidal activity, Fall panicum (fall panicum [15]): 0
Foliar treatment herbicidal activity, quack grass (quack grass [16]): 0
Foliar treatment herbicidal activity, Sorghum (sorghum [17]): 0
Foliar treatment herbicidal activity, Indian jointvetch (indian jointvetch [18]): 0
Foliar treatment herbicidal activity, Bindweed (bindweed [19]): 0
Soil treatment herbicidal activity, Indian jointvetch (indian jointvetch [20]): 0
